Reference: US8426220B2, “Utilization of shield effect for dopamine detection and reagent development” (National Tsing Hua University, priority 2009, dated 2013)

Experiments:
[1] = target: T1, hMAO B-GFP fusion protein (medium form of dopamine probe) in PC12 cells (Homo sapiens, UniProt P27338); test: MAO substrates MPTP and L-DOPA added to cells expressing dopamine probe elicit GFP fluorescence; format: cell-based; conditions: for GFP fluorescence after drug treatment: PC12 cells expressing medium form of dopamine probe; for green fluorescence (release from shield effect) after treatment: preliminary experiment, excitation of 488 nm laser, a part of the cells
T1 construct: expressed in transfected cells
Source text: Additions of MAO Substrates 1-methyl-4-phenyl-1,2,3,6-tetrahydropyridine (MPTP) and L-DOPA in Cells Expressing Dopamine Probe Elicit GFP Fluorescence
MPTP is a widely used compound as an MAO substrate. It is also used for measuring the enzyme activity of the MAO protein. The L-DOPA is a stable dopamine precursor and has been extensively used for the treatment of Parkinson's disease. After entering the cell, it could be converted into dopamine by the dopa decarboxylase. Both of the drugs could bind to dopamine transporter and be transported into the PC12 cells.

E. coli strain BL21 = test: GFP fluorescent signal of dopamine probes and controls in living E. coli BL21, confocal microscopy; format: cell-based; conditions: living E. coli BL21 after IPTG induction, excited by 488 nm laser, no substrate
PC12 cell line = test: GFP fluorescent signal of dopamine probes and controls in PC12 stable cell lines, confocal microscopy; format: cell-based, rat; conditions: excited by 488 nm laser, no substrate
Source text: The rat pheochromocytoma cells (PC12 cell) were transfected with sequences of GFP, ΔhMAO B, and the probe protein through vector containing internal ribosome entry site (IRES). After antibiotic selection for more than a month, cell lines consistently expressing dopamine probe proteins were successfully established. The cell lines were detected by GFP antibody in Western blotting and observed by confocal microscopy.

[2] = differentiated PC12 cell line (NGF)
[3] = undifferentiated PC12 cell line

| Molecule | green fluorescence (release from shield effect) after treatment [1] | GFP fluorescent signal (E. coli strain BL21) | GFP fluorescent signal (PC12 cell line; [2]) | GFP fluorescent signal (PC12 cell line; [3]) | other results |
| --- | --- | --- | --- | --- | --- |
| CN1CC=C(c2ccccc2)CC1 [MPTP, 1-methyl-4-phenyl-1,2,3,6-tetrahydropyridine] | green fluorescence in those cells was successfully emitted |  |  |  | GFP fluorescence after drug treatment ([1]; 1 mM MPTP): strong GFP fluorescence |
| GFP: full-length green fluorescent protein, SEQ ID NO: 2, control [reference compound] |  | Evident expression of green fluorescent signal | clear fluorescent signals | clear fluorescent signals | GFP fluorescent signal (E. coli strain BL21; listed as full length GFP): clear fluorescent signals |
| N[C@@H](Cc1ccc(O)c(O)c1)C(=O)O [L-DOPA] | green fluorescence in those cells was successfully emitted |  |  |  | GFP fluorescence after drug treatment ([1]; 100 μM L-dopa): strong GFP fluorescence |
| ΔhMAO B (protein) MSNKCDVVVVGGGISGMAAAKLLHDSGLNVVVLEARDRVGGRTYTLRNQKVKYVDLGGSYVGPTQNRILRLAKELGLETYKVNEVERLIHHVKGKSYPFRGPFPPVWNPITYLDHNNFWRTMDDMGREIPSDAPWKAPLAEEWDNMTMKELLDKLCWTESAKQLATLFVNLCVTAETHEVSALWFLWYVKQCGGTTRIISTTNGGQERKFVGGSGQVSERIMDLLGDRVKLERPVIYIDQTRENVLVETLNHEMYEAKYVISAIPPTLGMKIHFNPPLPMMRNQMITRVPLGSVIKCIVYYKEPFWRKKDYCGTMIIDGEEAPVAYTLDDTKPEGNYAAIMGFILAHKARKLARLTKEERLKKLCELYAKVLGSLEALEPVHYEEKNWCEEQYSGGCYTTYFPPGILTQYGRVLRQPVDRIYFAGTETATHWSGYMEGAVEAGERAAREILHAMGKIPEDEI |  | no fluorescent signal | no signal | no signal |  |
| hMAO B: the complete human monoamine oxidase B, SEQ ID NO: 1, control (protein, listed as Homo sapiens, mat_peptide (1)..(520)) MSNKCDVVVVGGGISGMAAAKLLHDSGLNVVVLEARDRVGGRTYTLRNQKVKYVDLGGSYVGPTQNRILRLAKELGLETYKVNEVERLIHHVKGKSYPFRGPFPPVWNPITYLDHNNFWRTMDDMGREIPSDAPWKAPLAEEWDNMTMKELLDKLCWTESAKQLATLFVNLCVTAETHEVSALWFLWYVKQCGGTTRIISTTNGGQERKFVGGSGQVSERIMDLLGDRVKLERPVIYIDQTRENVLVETLNHEMYEAKYVISAIPPTLGMKIHFNPPLPMMRNQMITRVPLGSVIKCIVYYKEPFWRKKDYCGTMIIDGEEAPVAYTLDDTKPEGNYAAIMGFILAHKARKLARLTKEERLKKLCELYAKVLGSLEALEPVHYEEKNWCEEQYSGGCYTTYFPPGILTQYGRVLRQPVDRIYFAGTETATHWSGYMEGAVEAGERAAREILHAMGKIPEDEIWQSEPESVDVPAQPITTTFLERHLPSVPGLLRLIGLTTIFSATALGFLAHKRGLLVRV |  | no fluorescent signal |  |  |  |
